Measured values from patent US20240158446A1, “CYCLIC COMPOUND HAVING SELECTIVE INHIBITORY ACTION ON KRAS OVER HRAS AND NRAS” (CHUGAI SEIYAKU KABUSHIKI KAISHA, priority 2021, published 2024).
pIC50, pKd: −log10 of the molar value.

Legend:
[1] = biological target: GDP-bound KRAS wild-type protein (Homo sapiens, UniProt P01116); test: Binding to KRAS by surface plasmon resonance (SPR), Single Cycle Kinetics; conditions: SPR, Single Cycle Kinetics, GDP-bound KRAS wild-type protein; read-out: KRAS KD
[2] = biological target: GDP-bound NRAS wild-type protein (Homo sapiens, UniProt P01111); test: Binding to NRAS by surface plasmon resonance (SPR), Single Cycle Kinetics; conditions: SPR, GDP-bound NRAS wild-type protein vs GDP-bound KRAS wild-type protein
[3] = biological target: GDP-bound HRAS wild-type protein (Homo sapiens, UniProt P01112); test: Binding to HRAS by surface plasmon resonance (SPR), Single Cycle Kinetics; conditions: SPR, GDP-bound HRAS wild-type protein vs GDP-bound KRAS wild-type protein
[4] = tested on: human lung cancer strain NCI-H441;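 note: cell proliferation inhibition after four days measured by CellTiter-Glo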

Chain of GDP-bound NRAS wild-type protein (P01111 whole entry): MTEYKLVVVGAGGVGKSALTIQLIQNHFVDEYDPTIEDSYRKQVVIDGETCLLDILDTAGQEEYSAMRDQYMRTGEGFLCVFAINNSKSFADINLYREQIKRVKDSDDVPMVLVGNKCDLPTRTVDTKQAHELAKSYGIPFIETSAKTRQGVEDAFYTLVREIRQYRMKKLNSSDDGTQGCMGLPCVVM
Chain of GDP-bound HRAS wild-type protein (P01112 whole entry): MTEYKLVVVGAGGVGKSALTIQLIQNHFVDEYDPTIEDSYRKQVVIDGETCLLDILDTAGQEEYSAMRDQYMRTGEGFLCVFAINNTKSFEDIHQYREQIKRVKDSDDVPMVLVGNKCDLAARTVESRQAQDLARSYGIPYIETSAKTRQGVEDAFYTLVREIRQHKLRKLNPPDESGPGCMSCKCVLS
Chain of GDP-bound KRAS wild-type protein (P01116 whole entry): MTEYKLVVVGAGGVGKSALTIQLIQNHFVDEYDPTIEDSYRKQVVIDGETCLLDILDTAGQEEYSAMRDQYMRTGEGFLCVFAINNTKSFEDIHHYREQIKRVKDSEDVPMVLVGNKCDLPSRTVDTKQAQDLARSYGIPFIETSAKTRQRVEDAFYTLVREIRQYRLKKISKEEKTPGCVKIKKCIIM

Compound | pKd [1] | pIC50 [4] | NRAS/KRAS (ratio of KD value for NRAS to KD value for KRAS) [2] | HRAS/KRAS (ratio of KD value for HRAS to KD value for KRAS) [3]
CC[C@H](C)[C@@H]1NC(=O)[C@H](CC)N(C)C(=O)C[C@@H](C(=O)N(C)C)N(C)C(=O)[C@H](C2CCCC2)N(C)C(=O)C2(CCC2)NC(=O)[C@@H]2C[C@H](F)CN2C(=O)[C@H](CCc2cc(F)c(C(F)(F)F)c(F)c2)NC(=O)CN(C)C(=O)[C@H](Cc2ccc(C(F)(F)F)cc2)N2CC/C=C\C[C@@H](C2=O)N(C)C(=O)CN(C)C1=O [PP1132, (2S,8S,12S,14S,20S,23S,27S,30S,36S,38Z)-20-cyclopentyl-8-[2-[3,5-difluoro-4-(trifluoromethyl)phenyl]ethyl]-27-ethyl-12-fluoro-N,N,4,19,22,26,32,35-octamethyl-30-[(1S)-1-methylpropyl]-3,6,9,15,18,21,25,28,31,34,42-undecaoxo-2-[[4-(trifluoromethyl)phenyl]methyl]spiro[1,4,7,10,16,19,22,26,29,32,35-undecazatricyclo[34.5.1.0^10,14]dotetracont-38-ene-17,1′-cyclobutane]-23-carboxamide] | 10.18 | 7.06 | A (a compound having 10 or more and less than 20 is denoted as A) | B (a compound having 3 or more and less than 10 is denoted as B)
CC[C@H](C)[C@@H]1NC(=O)[C@H](CC)N(C)C(=O)C[C@@H](C(=O)N(C)C)N(C)C(=O)[C@H](C2CCCC2)N(C)C(=O)C2(CCC2)NC(=O)[C@@H]2C[C@H](C)CN2C(=O)[C@H](CCc2cc(F)c(C(F)(F)F)c(F)c2)NC(=O)CN(C)C(=O)[C@H](Cc2ccc(C(F)(F)F)cc2)N2CC/C=C\C[C@@H](C2=O)N(C)C(=O)CN(C)C1=O [PP1134, (2S,8S,12S,14S,20S,23S,27S,30S,36S,38Z)-20-cyclopentyl-8-[2-[3,5-difluoro-4-(trifluoromethyl)phenyl]ethyl]-27-ethyl-N,N,4,12,19,22,26,32,35-nonamethyl-30-[(1S)-1-methylpropyl]-3,6,9,15,18,21,25,28,31,34,42-undecaoxo-2-[[4-(trifluoromethyl)phenyl]methyl]spiro[1,4,7,10,16,19,22,26,29,32,35-undecazatricyclo[34.5.1.0^10,14]dotetracont-38-ene-17,1′-cyclobutane]-23-carboxamide] | 10.22 | 7.70 | A (a compound having 10 or more and less than 20 is denoted as A) | B (a compound having 3 or more and less than 10 is denoted as B)
CC[C@H](C)[C@@H]1NC(=O)[C@H](CC)N(C)C(=O)C[C@@H](C(=O)N(C)C)N(C)C(=O)[C@H](C2CCCC2)N(C)C(=O)C2(CCC2)NC(=O)[C@@H]2CCCN2C(=O)[C@H](CCc2cc(F)c(C(F)(F)F)c(F)c2)NC(=O)CN(C)C(=O)[C@H](Cc2ccc(C(F)(F)F)cc2)N2CC/C=C\C[C@@H](C2=O)N(C)C(=O)CN(C)C1=O [PP1135, (2S,8S,14S,20S,23S,27S,30S,36S,38Z)-20-cyclopentyl-8-[2-[3,5-difluoro-4-(trifluoromethyl)phenyl]ethyl]-27-ethyl-N,N,4,19,22,26,32,35-octamethyl-30-[(1S)-1-methylpropyl]-3,6,9,15,18,21,25,28,31,34,42-undecaoxo-2-[[4-(trifluoromethyl)phenyl]methyl]spiro[1,4,7,10,16,19,22,26,29,32,35-undecazatricyclo[34.5.1.0^10,14]dotetracont-38-ene-17,1′-cyclobutane]-23-carboxamide] | 10.03 | 7.36 | A (a compound having 10 or more and less than 20 is denoted as A) | A (a compound having 10 or more and less than 20 is denoted as A)
CC[C@H](C)[C@@H]1NC(=O)[C@H](CC)N(C)C(=O)C[C@@H](C(=O)N(C)C)N(C)C(=O)[C@H](C2CCCC2)N(C)C(=O)C2(CCC2)NC(=O)[C@@H]2CCCCN2C(=O)[C@H](CCc2cc(F)c(C(F)(F)F)c(F)c2)NC(=O)CN(C)C(=O)[C@H](Cc2ccc(C(F)(F)F)cc2)N2CC/C=C\C[C@@H](C2=O)N(C)C(=O)CN(C)C1=O [PP1136, (2S,8S,15S,21S,24S,28S,31S,37S,39Z)-21-cyclopentyl-8-[2-[3,5-difluoro-4-(trifluoromethyl)phenyl]ethyl]-28-ethyl-N,N,4,20,23,27,33,36-octamethyl-31-[(1S)-1-methylpropyl]-3,6,9,16,19,22,26,29,32,35,43-undecaoxo-2-[[4-(trifluoromethyl)phenyl]methyl]spiro[1,4,7,10,17,20,23,27,30,33,36-undecazatricyclo[35.5.1.0^10,1^5]tritetracont-39-ene-18,1′-cyclobutane]-24-carboxamide] | 9.85 | 6.71 | A (a compound having 10 or more and less than 20 is denoted as A) | A (a compound having 10 or more and less than 20 is denoted as A)

These reach a higher pKd [1]. Values come first.

pKd [1] | pIC50 [4] | Compound | NRAS/KRAS (ratio of KD value for NRAS to KD value for KRAS) [2] | HRAS/KRAS (ratio of KD value for HRAS to KD value for KRAS) [3]
10.25 | 7.99 | CC[C@H](C)[C@@H]1NC(=O)[C@H](CC)N(C)C(=O)C[C@@H](C(=O)N(C)C)N(C)C(=O)[C@H](C2CCCC2)N(C)C(=O)C2(CCC2)NC(=O)[C@@H]2CC(F)(F)CN2C(=O)[C@H](CCc2cc(F)c(C(F)(F)F)c(F)c2)NC(=O)CN(C)C(=O)[C@H](Cc2ccc(C(F)(F)F)cc2)N2CC/C=C\C[C@@H](C2=O)N(C)C(=O)CN(C)C1=O [PP1129, (2S,8S,14S,20S,23S,27S,30S,36S,38Z)-20-cyclopentyl-8-[2-[3,5-difluoro-4-(trifluoromethyl)phenyl]ethyl]-27-ethyl-12,12-difluoro-N,N,4,19,22,26,32,35-octamethyl-30-[(1S)-1-methylpropyl]-3,6,9,15,18,21,25,28,31,34,42-undecaoxo-2-[[4-(trifluoromethyl)phenyl]methyl]spiro[1,4,7,10,16,19,22,26,29,32,35-undecazatricyclo[34.5.1.0^10,14]dotetracont-38-ene-17,1′-cyclobutane]-23-carboxamide] | A (a compound having 10 or more and less than 20 is denoted as A) | B (a compound having 3 or more and less than 10 is denoted as B)
10.46 | 7.71 | CC[C@H](C)[C@@H]1NC(=O)[C@H](CC)N(C)C(=O)C[C@@H](C(=O)N(C)C)N(C)C(=O)[C@H](C2CCCC2)N(C)C(=O)C2(CCC2)NC(=O)[C@@H]2C[C@@H](OC)CN2C(=O)[C@H](CCc2cc(F)c(C(F)(F)F)c(F)c2)NC(=O)CN(C)C(=O)[C@H](Cc2ccc(C(F)(F)F)cc2)N2CC/C=C\C[C@@H](C2=O)N(C)C(=O)CN(C)C1=O [PP1130, (2S,8S,12R,14S,20S,23S,27S,30S,36S,38Z)-20-cyclopentyl-8-[2-[3,5-difluoro-4-(trifluoromethyl)phenyl]ethyl]-27-ethyl-12-methoxy-N,N,4,19,22,26,32,35-octamethyl-30-[(1S)-1-methylpropyl]-3,6,9,15,18,21,25,28,31,34,42-undecaoxo-2-[[4-(trifluoromethyl)phenyl]methyl]spiro[1,4,7,10,16,19,22,26,29,32,35-undecazatricyclo[34.5.1.0^10,14]dotetracont-38-ene-17,1′-cyclobutane]-23-carboxamide] | A (a compound having 10 or more and less than 20 is denoted as A) | B (a compound having 3 or more and less than 10 is denoted as B)
10.60 | 7.49 | CC[C@H](C)[C@@H]1NC(=O)[C@H](CC)N(C)C(=O)C[C@@H](C(=O)N(C)C)N(C)C(=O)[C@H](C2CCCC2)N(C)C(=O)C2(CCC2)NC(=O)[C@@H]2C[C@@H](F)CN2C(=O)[C@H](CCc2cc(F)c(C(F)(F)F)c(F)c2)NC(=O)CN(C)C(=O)[C@H](Cc2ccc(C(F)(F)F)cc2)N2CC/C=C\C[C@@H](C2=O)N(C)C(=O)CN(C)C1=O [PP1131, (2S,8S,12R,14S,20S,23S,27S,30S,36S,38Z)-20-cyclopentyl-8-[2-[3,5-difluoro-4-(trifluoromethyl)phenyl]ethyl]-27-ethyl-12-fluoro-N,N,4,19,22,26,32,35-octamethyl-30-[(1S)-1-methylpropyl]-3,6,9,15,18,21,25,28,31,34,42-undecaoxo-2-[[4-(trifluoromethyl)phenyl]methyl]spiro[1,4,7,10,16,19,22,26,29,32,35-undecazatricyclo[34.5.1.0^10,14]dotetracont-38-ene-17,1′-cyclobutane]-23-carboxamide] | A (a compound having 10 or more and less than 20 is denoted as A) | B (a compound having 3 or more and less than 10 is denoted as B)
10.30 | 7.78 | CC[C@H](C)[C@@H]1NC(=O)[C@H](CC)N(C)C(=O)C[C@@H](C(=O)N(C)C)N(C)C(=O)[C@H](C2CCCC2)N(C)C(=O)C2(CCC2)NC(=O)[C@@H]2C[C@@H](C(F)(F)F)CN2C(=O)[C@H](CCc2cc(F)c(C(F)(F)F)c(F)c2)NC(=O)CN(C)C(=O)[C@H](Cc2ccc(C(F)(F)F)cc2)N2CC/C=C\C[C@@H](C2=O)N(C)C(=O)CN(C)C1=O [PP1133, (2S,8S,12R,14S,20S,23S,27S,30S,36S,38Z)-20-cyclopentyl-8-[2-[3,5-difluoro-4-(trifluoromethyl)phenyl]ethyl]-27-ethyl-N,N,4,19,22,26,32,35-octamethyl-30-[(1S)-1-methylpropyl]-3,6,9,15,18,21,25,28,31,34,42-undecaoxo-12-(trifluoromethyl)-2-[[4-(trifluoromethyl)phenyl]methyl]spiro[1,4,7,10,16,19,22,26,29,32,35-undecazatricyclo[34.5.1.0^10,14]dotetracont-38-ene-17,1′-cyclobutane]-23-carboxamide] | A (a compound having 10 or more and less than 20 is denoted as A) | A (a compound having 10 or more and less than 20 is denoted as A)
